Where a SMILES comes first, the peptide text is derived from it. Bridges are numbered along the chain shown (N, C = ends). [ ]: non-standard residue; d: D form. The star is where a group is joined. Ileψ(thiazoline)Cys = CC[C@H](C)[C@H](N)C1=N[C@H](C(=O)*)CS1; dOrn = NCCC[C@@H](N)C(=O)O
Legend:
[1] = DRUGMATRIX: Glutamate, Kainate radioligand binding (ligand: [3H] Kainic acid); type: cell membranes, Rattus norvegicus, Wistar, Brain, Membrane; conditions: Not Active = under 50% inhibition at 10 µM
[2] = target: T1, Nitric oxide synthase, inducible (Mus musculus, UniProt P29477); set-up: species or system Escherichia coli;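 further: inhibition of iNOS enzyme activity measured with L-arginine as substrate; in other assays of this panel Not Active means under 50% inhibition at 10 µM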
T1 sequence (P29477 whole entry): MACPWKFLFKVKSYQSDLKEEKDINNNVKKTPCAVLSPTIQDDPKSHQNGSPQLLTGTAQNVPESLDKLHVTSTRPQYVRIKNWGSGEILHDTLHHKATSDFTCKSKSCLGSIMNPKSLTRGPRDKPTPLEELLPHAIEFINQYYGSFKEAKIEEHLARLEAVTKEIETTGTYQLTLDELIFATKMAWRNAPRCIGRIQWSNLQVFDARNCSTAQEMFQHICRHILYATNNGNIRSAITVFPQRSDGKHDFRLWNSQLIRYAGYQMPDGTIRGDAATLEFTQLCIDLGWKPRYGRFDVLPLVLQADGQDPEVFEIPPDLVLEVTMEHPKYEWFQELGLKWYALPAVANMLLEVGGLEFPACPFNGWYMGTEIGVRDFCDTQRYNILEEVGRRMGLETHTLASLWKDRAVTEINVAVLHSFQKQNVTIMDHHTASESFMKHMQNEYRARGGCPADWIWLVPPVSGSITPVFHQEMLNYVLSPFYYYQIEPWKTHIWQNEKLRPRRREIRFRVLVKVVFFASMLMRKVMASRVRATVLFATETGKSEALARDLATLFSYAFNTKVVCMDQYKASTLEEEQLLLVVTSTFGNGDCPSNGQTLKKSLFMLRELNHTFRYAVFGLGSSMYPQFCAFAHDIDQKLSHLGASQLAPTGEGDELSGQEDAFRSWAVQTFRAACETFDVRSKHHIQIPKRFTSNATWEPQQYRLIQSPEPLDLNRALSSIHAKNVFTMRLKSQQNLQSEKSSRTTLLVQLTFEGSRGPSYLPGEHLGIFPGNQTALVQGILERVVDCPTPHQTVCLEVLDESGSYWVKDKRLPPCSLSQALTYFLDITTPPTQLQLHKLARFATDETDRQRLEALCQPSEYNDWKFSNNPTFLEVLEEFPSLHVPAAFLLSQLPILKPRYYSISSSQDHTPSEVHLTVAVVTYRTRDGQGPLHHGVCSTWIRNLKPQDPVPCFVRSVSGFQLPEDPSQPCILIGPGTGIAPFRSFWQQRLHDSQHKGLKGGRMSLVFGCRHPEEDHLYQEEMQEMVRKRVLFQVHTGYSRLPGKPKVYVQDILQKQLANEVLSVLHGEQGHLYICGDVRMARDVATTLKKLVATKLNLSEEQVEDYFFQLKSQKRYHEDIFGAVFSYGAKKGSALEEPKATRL

Cytochrome P450 1A2 = target: T2, Cytochrome P450 1A2 (Homo sapiens, UniProt P05177); conditions: bti-tn-5b1-4; further: in other assays of this panel Not Active means under 50% inhibition at 10 µM
T2 sequence (P05177 whole entry): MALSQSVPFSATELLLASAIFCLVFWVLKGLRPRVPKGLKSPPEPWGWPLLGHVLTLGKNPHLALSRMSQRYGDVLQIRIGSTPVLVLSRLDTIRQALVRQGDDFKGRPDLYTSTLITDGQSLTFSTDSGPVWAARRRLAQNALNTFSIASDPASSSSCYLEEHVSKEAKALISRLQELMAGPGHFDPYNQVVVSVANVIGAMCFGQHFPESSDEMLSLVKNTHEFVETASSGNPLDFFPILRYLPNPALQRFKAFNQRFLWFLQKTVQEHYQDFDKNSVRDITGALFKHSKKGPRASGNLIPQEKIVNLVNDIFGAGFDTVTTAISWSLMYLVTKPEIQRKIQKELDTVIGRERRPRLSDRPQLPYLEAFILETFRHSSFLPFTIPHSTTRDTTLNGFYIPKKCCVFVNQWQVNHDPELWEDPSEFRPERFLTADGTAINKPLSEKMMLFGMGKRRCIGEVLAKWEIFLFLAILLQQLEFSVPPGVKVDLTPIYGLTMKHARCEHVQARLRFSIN

[3] = DRUGMATRIX: Nicotinic Acetylcholine radioligand binding (ligand: [125I] Epibatidine); type: cell membranes, Membrane; conditions: imr-32; Not Active = under 50% inhibition at 10 µM
[4] = target: Protein kinase C alpha type (Homo sapiens, UniProt P17252); type: cell-based; conditions: sf9;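 further: inhibition of PKCalpha kinase activity measured in an enzyme assay with histone as the phosphorylation substrate; in other assays of this panel Not Active means under 50% inhibition at 10 µM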
Leukotriene C4 synthase = target: T3, Leukotriene C4 synthase (Cavia porcellus, UniProt A6XA80); assay: biochemical; type: tissue-based, Lung;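 further: enzyme inhibition assay of leukotriene C4 synthase, using LTA4 as the substrate; in other assays of this panel Not Active means under 50% inhibition at 10 µM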
T3 sequence (A6XA80 whole entry): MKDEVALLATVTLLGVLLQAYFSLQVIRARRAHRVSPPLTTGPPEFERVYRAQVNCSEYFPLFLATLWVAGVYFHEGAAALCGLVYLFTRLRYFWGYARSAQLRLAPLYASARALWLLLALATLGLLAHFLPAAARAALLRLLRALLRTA

N#C[C@H](O[C@@H]1O[C@H](CO[C@@H]2O[C@H](CO)[C@@H](O)[C@H](O)[C@H]2O)[C@@H](O)[C@H](O)[C@H]1O)c1ccccc1 [AMYGDALIN]
Not Active: IC50 [1] | Ki [1] | IC50 [2] | IC50 (Cytochrome P450 1A2) | Ki (Cytochrome P450 1A2) | IC50 [3] | Ki [3] | IC50 [4] | IC50 (Leukotriene C4 synthase)

N=C(N)NCCCCNC(=N)N.O=S(=O)(O)O [ARCAINE SULFATE]
Not Active: IC50 [1] | Ki [1] | IC50 [2] | IC50 (Cytochrome P450 1A2) | Ki (Cytochrome P450 1A2) | IC50 [3] | Ki [3] | IC50 [4] | IC50 (Leukotriene C4 synthase)

C=C1[C@@H]2CCC3[C@@](CC[C@@H]4[C@H](C(=O)O)C[C@@H](O[C@@H]5O[C@H](CO)[C@@H](OS(=O)(=O)[O-])[C@H](OS(=O)(=O)[O-])[C@H]5OC(=O)CC(C)C)C[C@@]34C)(C2)[C@@H]1O.[K+].[K+] (some centres undefined) [ATRACTYLOSIDE]
Not Active: IC50 [1] | Ki [1] | IC50 [2] | IC50 (Cytochrome P450 1A2) | Ki (Cytochrome P450 1A2) | IC50 [3] | Ki [3] | IC50 [4] | IC50 (Leukotriene C4 synthase)

Cn1cnc([N+](=O)[O-])c1Sc1ncnc2nc[nH]c12 [AZATHIOPRINE]
Not Active: IC50 [1] | Ki [1] | IC50 [2] | IC50 (Cytochrome P450 1A2) | Ki (Cytochrome P450 1A2) | IC50 [3] | Ki [3] | IC50 [4] | IC50 (Leukotriene C4 synthase)

CC1(C)S[C@@H]2[C@H](NC(=O)[C@H](NC(=O)N3CCNC3=O)c3ccccc3)C(=O)N2[C@H]1C(=O)O [AZLOCILLIN]
Not Active: IC50 [1] | Ki [1] | IC50 [2] | IC50 (Cytochrome P450 1A2) | Ki (Cytochrome P450 1A2) | IC50 [3] | Ki [3] | IC50 [4] | IC50 (Leukotriene C4 synthase)

CC[C@H](C)[C@H](N)C1=N[C@H](C(=O)N[C@@H](CC(C)C)C(=O)N[C@H](CCC(=O)O)C(=O)N[C@H](C(=O)N[C@H]2CCCCNC(=O)[C@H](CC(N)=O)NC(=O)[C@@H](CC(=O)O)NC(=O)[C@H](Cc3cnc[nH]3)NC(=O)[C@@H](Cc3ccccc3)NC(=O)[C@H]([C@@H](C)CC)NC(=O)[C@@H](CCCN)NC2=O)[C@@H](C)CC)CS1 [BACITRACIN] ({Ileψ(thiazoline)Cys}-L[dE]IK[dOrn]I[dF]H[dD]N; lactam 4-C)
Not Active: IC50 [1] | Ki [1] | IC50 [2] | IC50 (Cytochrome P450 1A2) | Ki (Cytochrome P450 1A2) | IC50 [3] | Ki [3] | IC50 [4] | IC50 (Leukotriene C4 synthase)

CCOC(=O)c1ccc(N)cc1 [BENZOCAINE]
Not Active: IC50 [1] | Ki [1] | IC50 [2] | IC50 (Cytochrome P450 1A2) | Ki (Cytochrome P450 1A2) | IC50 [3] | Ki [3] | IC50 [4] | IC50 (Leukotriene C4 synthase)

OCc1ccccc1 [BENZYL ALCOHOL]
Not Active: IC50 [1] | Ki [1] | IC50 [2] | IC50 (Cytochrome P450 1A2) | Ki (Cytochrome P450 1A2) | IC50 [3] | Ki [3] | IC50 [4] | IC50 (Leukotriene C4 synthase)

CC(C)(Oc1ccc(CCNC(=O)c2ccc(Cl)cc2)cc1)C(=O)O [BEZAFIBRATE]
Not Active: IC50 [1] | Ki [1] | IC50 [2] | IC50 (Cytochrome P450 1A2) | Ki (Cytochrome P450 1A2) | IC50 [3] | Ki [3] | IC50 [4] | IC50 (Leukotriene C4 synthase)

CCCC[C@@H](CC)COC(=O)c1ccccc1C(=O)OC[C@@H](CC)CCCC [BIS(2-ETHYLHEXYL)PHTHALATE]
Not Active: IC50 [1] | Ki [1] | IC50 [2] | IC50 (Cytochrome P450 1A2) | Ki (Cytochrome P450 1A2) | IC50 [3] | Ki [3] | IC50 [4] | IC50 (Leukotriene C4 synthase)

Oc1c(Cl)cc(Cl)cc1Sc1cc(Cl)cc(Cl)c1O [BITHIONOL]
Not Active: IC50 [1] | Ki [1] | IC50 [2] | IC50 (Cytochrome P450 1A2) | Ki (Cytochrome P450 1A2) | IC50 [3] | Ki [3] | IC50 [4] | IC50 (Leukotriene C4 synthase)

Brc1ccccc1 [BROMOBENZENE]
Not Active: IC50 [1] | Ki [1] | IC50 [2] | IC50 (Cytochrome P450 1A2) | Ki (Cytochrome P450 1A2) | IC50 [3] | Ki [3] | IC50 [4] | IC50 (Leukotriene C4 synthase)

CC[C@@]1(O)C(=O)OCc2c1cc1n(c2=O)Cc2cc3ccccc3nc2-1 [CAMPTOTHECIN]
Not Active: IC50 [1] | Ki [1] | IC50 [2] | IC50 (Cytochrome P450 1A2) | Ki (Cytochrome P450 1A2) | IC50 [3] | Ki [3] | IC50 [4] | IC50 (Leukotriene C4 synthase)

COCc1c(C(C)C)nc(C(C)C)c(/C=C/[C@@H](O)C[C@@H](O)CC(=O)O)c1-c1ccc(F)cc1 [CERIVASTATIN]
Not Active: IC50 [1] | Ki [1] | IC50 [2] | IC50 (Cytochrome P450 1A2) | Ki (Cytochrome P450 1A2) | IC50 [3] | Ki [3] | IC50 [4] | IC50 (Leukotriene C4 synthase)

CC(=O)O[C@]1(C(C)=O)CC[C@H]2[C@@H]3C=C(Cl)C4=CC(=O)CC[C@]4(C)[C@H]3CC[C@@]21C [CHLORMADINONE ACETATE]
Not Active: IC50 [1] | Ki [1] | IC50 [2] | IC50 (Cytochrome P450 1A2) | Ki (Cytochrome P450 1A2) | IC50 [3] | Ki [3] | IC50 [4] | IC50 (Leukotriene C4 synthase)

O=C1CCc2cc(OCCCCc3nnnn3C3CCCCC3)ccc2N1 [CILOSTAZOL]
Not Active: IC50 [1] | Ki [1] | IC50 [2] | IC50 (Cytochrome P450 1A2) | Ki (Cytochrome P450 1A2) | IC50 [3] | Ki [3] | IC50 [4] | IC50 (Leukotriene C4 synthase)

Reference: ChEMBL document CHEMBL1909046, “DrugMatrix in vitro pharmacology data”
